In PubChem BioAssay (NCI):
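Results reflect a 48-hour exposure of cells in 96-well plates to compound at five concentrations. Here, GI50 denotes the concentration required for 50% inhibition of growth. TGI is the concentration that stops growth completely.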

Key:
Test in all cases: NCI-60 cell line screen, 48 h
HOP-62 NSCLC = system: HOP-62 NSCLC
SK-MEL-5 melanoma = system: SK-MEL-5 melanoma
OVCAR-8 ovarian = system: OVCAR-8 ovarian
COLO 205 colon = system: COLO 205 colon
HCC-2998 colon = system: HCC-2998 colon
HT29 colon = system: HT29 colon
SF-539 CNS = system: SF-539 CNS
NCI/ADR-RES ovarian = system: NCI/ADR-RES ovarian
CCRF-CEM leukemia = system: CCRF-CEM leukemia
IGROV1 ovarian = system: IGROV1 ovarian
RXF 393 renal = system: RXF 393 renal
HOP-92 NSCLC = system: HOP-92 NSCLC

SMILES | TGI (HOP-62 NSCLC) [µM] | TGI (SK-MEL-5 melanoma) [µM] | TGI (OVCAR-8 ovarian) [µM] | TGI (COLO 205 colon) [µM] | TGI (HCC-2998 colon) [µM] | TGI (HT29 colon) [µM] | TGI (SF-539 CNS) [µM] | TGI (NCI/ADR-RES ovarian) [µM] | TGI (CCRF-CEM leukemia) [µM] | TGI (IGROV1 ovarian) [µM] | TGI (RXF 393 renal) [µM] | TGI (HOP-92 NSCLC) [µM] | GI50 (SK-MEL-5 melanoma) [µM]
CC(=O)OC(Cc1c(O)c2c(C)cccc2oc1=O)C(C)(C)O (centres undefined) | > 100 | > 100 | > 100 | > 100 | > 100 | > 100 | > 100 | > 100 | > 100 | > 100 | – | – | –
O=c1cc(-c2ccccc2)[nH]c2nccn12 | > 10 | > 10 | > 10 | > 10 | > 10 | > 10 | > 10 | > 10 | > 10 | > 10 | > 10 | – | –
Cc1n(Cc2ccccc2)nc2sc(N)n[n+]12 | > 100 | > 100 | > 100 | > 100 | – | > 100 | > 100 | > 100 | > 100 | > 100 | > 100 | – | –
Cc1ccc(N/C(SCc2ccccc2)=C(\C(Cl)=C(Cl)Cl)[N+](=O)[O-])c(C)c1 | > 100 | – | 32.7 | 31.6 | > 100 | > 100 | 46.1 | 56.5 | > 100 | – | – | – | –
O=C(CC(Cl)=C(Cl)Cl)c1ccccc1 | > 100 | > 100 | > 100 | 78.9 | – | > 100 | > 100 | > 100 | 30.4 | > 100 | 63.8 | > 100 | –
CCOC(=O)NN(C(=O)OCC)c1c(C)cc(C)cc1C | – | > 100 | > 100 | > 100 | > 100 | > 100 | > 100 | > 100 | > 100 | > 100 | > 100 | – | –
N#Cc1c(-c2ccccc2)c(CN2CCCCC2)c(=O)n2c1[nH]c1ccccc12 | 91.5 | 34.1 | > 100 | 64 | > 100 | – | > 100 | > 100 | > 100 | > 100 | > 100 | – | –
Cc1ccc2c(/C=C/c3ccc(N(C)C)cc3)ccc(C(C)C)cc1-2 | > 100 | > 100 | > 100 | > 100 | – | > 100 | – | > 100 | > 100 | > 100 | > 100 | > 100 | –
CCOc1ccc(N/C(=C(/C(Cl)=C(/Cl)NC(C)(C)C)[N+](=O)[O-])n2nnc3ccccc32)cc1 | > 100 | – | 32.3 | 36.1 | > 100 | > 100 | 57.6 | > 100 | > 100 | – | 41.8 | – | –
CC(=O)Oc1ccc2c3c1O[C@H]1[C@H](O)CC[C@@]4(O)[C@@H](C2)N(C)CC[C@]314 | > 100 | > 100 | > 100 | > 100 | – | > 100 | > 100 | > 100 | – | > 100 | – | > 100 | –
Cc1cnc2[nH]c(-c3ccc4ccccc4c3)cc(=O)c2c1 | > 100 | > 100 | > 100 | 18.6 | > 100 | > 100 | 9.07 | – | – | > 100 | – | – | 0.359
O=C(N/N=C/c1cc(Br)cc(Br)c1[O-])c1ccccc1O.O=C(N/N=C/c1cc(Br)cc(Br)c1[O-])c1ccccc1O.[Co+2] | 10.3 | 2.96 | 12.5 | 20.4 | 10.5 | 17.7 | 4.66 | – | – | 8.44 | 10.5 | 6.13 | –
Nc1nc(-c2ccco2)cc(-c2ccc(CO)o2)n1 | > 100 | > 100 | > 100 | > 100 | – | > 100 | > 100 | – | > 100 | > 100 | > 100 | – | –
CNc1nc(C(N)=O)c(N)s1 | > 100 | > 100 | > 100 | > 100 | – | > 100 | > 100 | > 100 | > 100 | > 100 | > 100 | > 100 | –
ON=C(CC(O)(C(F)(F)Cl)C(F)(F)Cl)CC(O)(C(F)(F)Cl)C(F)(F)Cl | 9.78 | > 10 | > 10 | > 10 | > 10 | > 10 | > 10 | > 10 | > 10 | > 10 | 7.79 | – | –
COc1cccc(C2c3cc4c(cc3OC(Nc3ccccc3)C2C)OCO4)c1OC (centres undefined) | > 100 | > 100 | 33.1 | 19.7 | > 100 | > 100 | > 100 | – | 27.6 | > 100 | > 100 | 60.1 | –
